Source: patent US9476099B2 (TRUSTEES OF DARTMOUTH COLLEGE, priority 2012, dated 2016)
Several values for one entry are separate records, joined by “and”; a condition that tells them apart may be missing. Identical values can stand only once.

Tested on: NT2/D1-R1 control and DNMT3B knockdown cells
Test: Genome-wide expression analysis with PAM clusters, control and DNMT3B knockdown cells (Tables 8-14)
Conditions: sh-Ctrl + aza
[1] = NT2/D1-R1, decitabine 10 nM 3 days

Nc1ncn([C@H]2C[C@H](O)[C@@H](CO)O2)c(=O)n1 [aza]
LOC644422 XR_019449 expression Mean (10 nM decitabine, 3 days): 332.598
LOC647954 XR_018676 expression Mean (10 nM decitabine, 3 days): 1348.27
LOC728715 XM_0011282 expression Mean (10 nM decitabine, 3 days): 1760.28
M6PRBP1 NM_005817 expression Mean (10 nM decitabine, 3 days): 2017.94
MBNL3 NM_133486 expression Mean (10 nM decitabine, 3 days): 338.893
MCM4 NM_005914 expression Mean (10 nM decitabine, 3 days): 2945.56
MEPCE NM_019606 expression Mean (10 nM decitabine, 3 days): 786.84
METTL1 NM_005371 expression Mean (10 nM decitabine, 3 days): 412.423
MORF4L2 NM_012286 expression Mean (10 nM decitabine, 3 days): 1621.68
MRTO4 NM_016183 expression Mean (10 nM decitabine, 3 days): 893.853
MT1E NM_175617 expression Mean (10 nM decitabine, 3 days): 2437.55
MTA2 NM_004739 expression Mean (10 nM decitabine, 3 days): 453.486
MYOF NM_013451 expression Mean (10 nM decitabine, 3 days): 302.746
MYOF NM_133337 expression Mean (10 nM decitabine, 3 days): 612.957
NACC2 NM_144653 expression Mean (10 nM decitabine, 3 days): 566.307
NAT5 NM_181528 expression Mean (10 nM decitabine, 3 days): 1401.34
NBPF10 NM_0010376 expression Mean (10 nM decitabine, 3 days): 816.642
NBPF10 NM_0010397 expression Mean (10 nM decitabine, 3 days): 557.142
NEFH NM_021076 expression Mean (10 nM decitabine, 3 days): 538.551
NFE2 NM_006163 expression Mean (10 nM decitabine, 3 days): 459.796
NM_002467 expression Mean (10 nM decitabine, 3 days): 896.83
NM_0010397 expression Mean (10 nM decitabine, 3 days): 736.286
NM_138781 expression Mean (10 nM decitabine, 3 days): 484.429
NODAL NM_018055 expression Mean (10 nM decitabine, 3 days): 954.925
NOP2 NM_0010337 expression Mean (10 nM decitabine, 3 days): 7589.18
NOP56 NM_006392 expression Mean (10 nM decitabine, 3 days): 1764.44
NP NM_000270 expression Mean (10 nM decitabine, 3 days): 475.426
NR_002773 expression Mean (10 nM decitabine, 3 days): 596.315
NR_003287 expression Mean (10 nM decitabine, 3 days): 634.816
NTF3 NM_002527 expression Mean (10 nM decitabine, 3 days): 286.374
NTS NM_006183 expression Mean (10 nM decitabine, 3 days): 641.496
NUAK2 NM_030952 expression Mean (10 nM decitabine, 3 days): 309.88 and 403.382
OAT NM_000274 expression Mean (10 nM decitabine, 3 days): 2902.41
ODC1 NM_002539 expression Mean (10 nM decitabine, 3 days): 3243.03
PAK1IP1 NM_017906 expression Mean (10 nM decitabine, 3 days): 644.744
PEA15 NM_003768 expression Mean (10 nM decitabine, 3 days): 2263.16
PEG3 NM_006210 expression Mean (10 nM decitabine, 3 days): 442.766
PITX1 NM_002653 expression Mean (10 nM decitabine, 3 days): 947.042
PLAU NM_002658 expression Mean (10 nM decitabine, 3 days): 1093.87
PLEKHF1 NM_024310 expression Mean (10 nM decitabine, 3 days): 716.406
POLR1C NM_203290 expression Mean (10 nM decitabine, 3 days): 533.492 and 971.221
PPA2 NM_006903 expression Mean (10 nM decitabine, 3 days): 1058.5
PPAN NM_002566 expression Mean (10 nM decitabine, 3 days): 615.062
RBM22 NM_018047 expression Mean (10 nM decitabine, 3 days): 921.101
RNMTL1 NM_018146 expression Mean (10 nM decitabine, 3 days): 708.14
RPL6 NM_0010246 expression Mean (10 nM decitabine, 3 days): 1189.55
RRM2 NM_001034 expression Mean (10 nM decitabine, 3 days): 697.476
RSL1D1 NM_015659 expression Mean (10 nM decitabine, 3 days): 1413.6
RUNX3 NM_004350 expression Mean (10 nM decitabine, 3 days): 484.199
SERPINE1 NM_000602 expression Mean (10 nM decitabine, 3 days): 539.652
SERTAD1 NM_013376 expression Mean (10 nM decitabine, 3 days): 534.101
SFXN4 NM_213649 expression Mean (10 nM decitabine, 3 days): 724.081
SIDT2 NM_0010404 expression Mean (10 nM decitabine, 3 days): 528.693
SLC20A1 NM_005415 expression Mean (10 nM decitabine, 3 days): 1468.1
SNAPC4 NM_003086 expression Mean (10 nM decitabine, 3 days): 1200.9
SOCS2 NM_003877 expression Mean (10 nM decitabine, 3 days): 288.614 and 566.518
SOX15 NM_006942 expression Mean (10 nM decitabine, 3 days): 2791.76
SPANXD NM_145665 expression Mean (10 nM decitabine, 3 days): 210.19
SPRYD5 NM_032681 expression Mean (10 nM decitabine, 3 days): 519.493
SQSTM1 NM_003900 expression Mean (10 nM decitabine, 3 days): 2145.19
SRRT NM_015908 expression Mean (10 nM decitabine, 3 days): 4196.33
SUSD2 NM_019601 expression Mean (10 nM decitabine, 3 days): 2570.13
TAGLN NM_003186 expression Mean (10 nM decitabine, 3 days): 1178.17
TNFRSF12A NM_016639 expression Mean (10 nM decitabine, 3 days): 519.778
TNFRSF13B NM_012452 expression Mean (10 nM decitabine, 3 days): 179.31
TNPO1 NM_153188 expression Mean (10 nM decitabine, 3 days): 439.283
TPRG1L NM_182752 expression Mean (10 nM decitabine, 3 days): 1513.68
TRIM8 NM_030912 expression Mean (10 nM decitabine, 3 days): 922.659
TTC4 NM_004623 expression Mean (10 nM decitabine, 3 days): 1457.62
UTP14A NM_006649 expression Mean (10 nM decitabine, 3 days): 555.285
WBSCR22 NM_017528 expression Mean (10 nM decitabine, 3 days): 1107.76
XM_0011261 expression Mean (10 nM decitabine, 3 days): 718.505
XM_0011281 expression Mean (10 nM decitabine, 3 days): 2231.09
XR_015970 expression Mean (10 nM decitabine, 3 days): 1080.49
XR_016703 expression Mean (10 nM decitabine, 3 days): 6659.76
XR_017241 expression Mean (10 nM decitabine, 3 days): 10363
XR_017543 expression Mean (10 nM decitabine, 3 days): 832.234
ZDHHC6 NM_022494 expression Mean (10 nM decitabine, 3 days): 528.208
ZHX2 NM_014943 expression Mean (10 nM decitabine, 3 days): 479.456
A4GALT (NM_017436) gene expression, Mean [1]: 174.249
ABR (NM_001092) gene expression, Mean [1]: 424.634
ACACA (NM_198836) gene expression, Mean [1]: 443.13
